Legend:
[1] = tested on: T1, PSMK_RS04265 (type 3 L-KDFDH); test: spectrophotometric NADH formation at […] nm, Lineweaver-Burk; assay type: biochemical, Phycisphaera mikurensis; settings: 1.5 mM NAD+, 50 mM Tris-HCl pH 8.0, 30 °C
T1 construct: pQE-80L, N-terminal (His)6-tag, expressed in E. coli, Ni-NTA

[2] = tested on: T2, PEH01S_RS21285 (type 2 L-KDFDH); test: as above; assay type: biochemical, Paenibacillus ehimensis; settings: 1.5 mM NAD+, 50 mM Tris-HCl pH 8.0, 30 °C
T2 construct: pQE-80L, N-terminal (His)6-tag, expressed in E. coli, Ni-NTA

SMILES: C[C@H](O)[C@@H](O)CC(=O)C(=O)O [L-KDF]
- Km [1]: 6.08 ± 0.15 mM
- Km [2]: 529 ± 21 µM

— PMC11199699 (Scientific Reports, 2024)
